27 molecules from US20150208658A1, “METHODS OF SOIL PEST CONTROL” (Syngenta Participations AG, priority 2012, published 2015) can be followed below.

The structures appear in SMILES notation. Read-outs that look alike come from different tables or passages of the source.

For data set [1], the system named is Diabrotica balteata. The data set can be described thus: Diabrotica balteata (Banded Cucumber Beetle): treated corn seeds sown in soil pots, seedlings infested with 3rd stage larvae. Type of data set: in vivo. As to conditions: seed treatment, 6 days incubation. The protocol:
Diabrotica balteata (Banded Cucumber Beetle)
Treated corn seeds are sown in a 350 ml pot filled with soil. Two weeks after sowing phytotoxicity (lack of shoot—missing emergence) in comparison to the control is estimated and expressed in percentage. Furthermore, corn seedlings are infested with 3rd stage larvae of Diabrotica balteata. After an incubation period of 6 days survived larvae are counted and larval growth is assessed. Larval growth indicates the number of larvae with size differences between the larvae in the control and treatments, expressed in percentage.

In data set [2] the test system is Diabrotica balteata. The data set can be described thus: Diabrotica balteata (Corn Rootworm): 24-well microtiter plate with artificial diet, L2 larvae, larval mortality. Format: in vivo. As to conditions: for pest or weed control at 200 ppm / pest or weed control at 50 µg/mL: Diabrotica balteata, 120 h; for pest or weed control at 200 ppm: read-out: control of Diabrotica balteata; for pest or weed control at 50 µg/mL: read-out: control of Diabrotica balteata at 50 ppm or less; for Control/%: comparative example. The protocol: Diabrotica balteata (Corn Rootworm)
[…] After drying, the MTP's are infested with L2 larvae (6-10 per well). After an incubation period of 5 days, samples are checked for larval mortality.
Compounds are tested according to the above method.

Where [3] appears, read: application rate 200 ppm (concentration in well 18 ppm), L2 larvae, 5 days.
Where [4] appears, read: 50 ppm or less, L2 larvae, 5 days.

For `N#Cc1cc(C2=NOC(c3cc(Cl)c(F)c(Cl)c3)(C(F)(F)F)C2)ccc1-n1cc(F)cn1` (stereo not shown) [Compound D2], the “% larval mortality” value with Diabrotica balteata [1] (application rate 1 mg/seed) is 100%.

In the case of `N#Cc1cc(C2=NOC(c3cc(Cl)c(F)c(Cl)c3)(C(F)(F)F)C2)ccc1-n1nc(C(F)(F)F)cc1C(F)(F)F` (stereo not shown) [Compound D10], in the data set with Diabrotica balteata [2] (setting [3]), the “control of Diabrotica balteata” value is recorded as “No activity”.

On to `N#Cc1cc(C2=NOC(c3cc(Cl)c(F)c(Cl)c3)(C(F)(F)F)C2)ccc1-n1cncn1` (stereo not shown) [Compound C3], for which, in the data set with Diabrotica balteata [2], the pest or weed control at 200 ppm was no less than 80% and the pest or weed control at 50 µg/mL is greater than 80%. Besides, in the data set with Diabrotica balteata [1] (application rate 1 mg/seed), the “% larval mortality” value turned out to be 83%.

As to `N#Cc1cc(C2=NOC(c3cc(Cl)cc(Cl)c3)(C(F)(F)F)C2)ccc1-n1cncn1` (stereo not shown) [drawing 76], the Control/% in the data set with Diabrotica balteata [2] (application rate 3 ppm) amounted to 65%; in the data set on Diabrotica balteata [2] (application rate 12.5 ppm), 100%.

On to `CC(=O)NCc1ccc(C2=NCC(c3cc(Cl)cc(Cl)c3)(C(F)(F)F)C2)cc1Br` (stereo not shown) [Compound A5, N-{2-bromo-4-[4-(3,5-dichlorophenyl)-4-trifluoromethyl-4,5-dihydro-3H-pyrrol-2yl]-benzyl}acetamide], for which, in the data set with Diabrotica balteata [2] (setting [4]), the pest or weed control at 50 µg/mL is greater than 80%. In addition, the pest or weed control at 200 ppm in the data set with Diabrotica balteata [2] (setting [3]) is no less than 80%.

`CCC(=O)NC1CCc2cc(N3CCC(c4cc(C(F)(F)F)cc(C(F)(F)F)c4)(C(F)(F)F)C3)ccc21` (stereo not shown) [Compound E6, N-[5-[3-[3,5-bis(trifluoromethyl)phenyl]-3-(trifluoromethyl)pyrrolidin-1-yl]indan-1-yl]propanamide]: the pest or weed control at 50 µg/mL in the data set on Diabrotica balteata [2] (setting [4]) was greater than 80%. Also, in the data set with Diabrotica balteata [2] (setting [3]), the pest or weed control at 200 ppm is no less than 80%.

Take `O=C(NC1CCc2cc(C3=NCC(c4cc(Cl)cc(Cl)c4)(C(F)(F)F)C3)ccc21)C(F)(F)F` (stereo not shown) [Compound E5, N-[5-[3-(3,5-dichlorophenyl)-3-(trifluoromethyl)-2,4-dihydropyrrol-5-yl]indan-1-yl]-2,2,2-trifluoro-acetamide]: the pest or weed control at 50 µg/mL in the data set on Diabrotica balteata [2] (setting [4]) was greater than 80%. The pest or weed control at 200 ppm in the data set on Diabrotica balteata [2] (setting [3]) was no less than 80%.

On to `CC(=O)NC1CCc2cc(C3=NCC(c4cc(Cl)cc(Cl)c4)(C(F)(F)F)C3)ccc21` (stereo not shown) [Compound E2, N-[5-[3-(3,5-dichlorophenyl)-3-(trifluoromethyl)-2,4-dihydropyrrol-5-yl]indan-1-yl]acetamide], for which the pest or weed control at 50 µg/mL in the data set with Diabrotica balteata [2] (setting [4]) was greater than 80%. The pest or weed control at 200 ppm with Diabrotica balteata [2] (setting [3]) was no less than 80%.

For the molecule `O=C(NC1CCc2cc(C3=NCC(c4cc(Cl)cc(Cl)c4)(C(F)(F)F)C3)ccc21)C1CC1` (stereo not shown) [Compound E4, N-[5-[3-(3,5-dichlorophenyl)-3-(trifluoromethyl)-2,4-dihydropyrrol-5-yl]indan-1-yl]cyclopropanecarboxamide], the pest or weed control at 50 µg/mL with Diabrotica balteata [2] (setting [4]) is greater than 80%. In addition, the pest or weed control at 200 ppm with Diabrotica balteata [2] (setting [3]) is no less than 80%.

As for `CCC(=O)NCc1ccc(C2=NOC(c3cc(Cl)cc(Cl)c3)(C(F)(F)F)C2)cc1Cl` (stereo not shown) [Compound A3], in the data set on Diabrotica balteata [2], the pest or weed control at 200 ppm is no less than 80% and the pest or weed control at 50 µg/mL is greater than 80%.

As to `O=C(CC(F)(F)F)NC1CCc2cc(C3=NOC(c4cc(Cl)cc(Cl)c4)(C(F)(F)F)C3)ccc21` (stereo not shown) [drawing 74], the Control/% in the data set on Diabrotica balteata [2] (application rate 3 ppm) and in the data set on Diabrotica balteata [2] (application rate 12.5 ppm) was 100% in each case.

Turning to `FC(F)(F)C1(c2cc(Cl)cc(Cl)c2)CC(c2ccc(-n3cncn3)cc2)=NO1` (stereo not shown) [reference compound], the Control/% in the data set with Diabrotica balteata [2] (application rate 3 ppm) is on record as 0%; with Diabrotica balteata [2] (application rate 12.5 ppm) it was 85%.

For the molecule `CCC(=O)NC1CCc2cc(C3=NOC(c4cc(Cl)cc(Cl)c4)(C(F)(F)F)C3)ccc21` (stereo not shown) [Compound E1], the “% larval mortality” value with Diabrotica balteata [1] (application rate 0.3 mg/seed) was found to be 83%.

Consider `N#Cc1cc(C2=NOC(c3cc(Cl)cc(Cl)c3)(C(F)(F)F)C2)ccc1-n1cncn1` (stereo not shown) [Compound C4], for which, in the data set with Diabrotica balteata [1] (application rate 1 mg/seed), the “% larval mortality” value was found to be 100%.

On to `C[C@H](NC(=O)C1CC1)c1ccc(C2(C(F)(F)F)CN=C(c3cc(Cl)c(Cl)c(Cl)c3)C2)cc1` (stereo partly drawn) [Compound B3, N-[(1S)-1-[4-[5-(3,4,5-trichlorophenyl)-3-(trifluoromethyl)-2,4-dihydropyrrol-3-yl]phenyl]ethyl]cyclopropanecarboxamide], for which the pest or weed control at 50 µg/mL with Diabrotica balteata [2] (setting [4]) was greater than 80%. The pest or weed control at 200 ppm with Diabrotica balteata [2] (setting [3]) was no less than 80%. The “% larval mortality” value with Diabrotica balteata [1] (application rate 0.3 mg/seed) came to 80%.

As for `CC(=O)N[C@@H](C)c1ccc(C2=NOC(c3cc(Cl)cc(Cl)c3)(C(F)(F)F)C2)cc1` (stereo partly drawn) [Compound B2, N-[(1S)-1-[4-[5-(3,5-dichlorophenyl)-5-(trifluoromethyl)-4H-isoxazol-3-yl]phenyl]ethyl]acetamide], in the data set with Diabrotica balteata [2], the pest or weed control at 200 ppm was no less than 80% and the pest or weed control at 50 µg/mL was greater than 80%.

In the case of `O=C(NCC(F)(F)F)N1CCc2cc(C3=NOC(c4cc(Cl)cc(Cl)c4)(C(F)(F)F)C3)ccc21` (stereo not shown) [reference compound], the Control/% in the data set on Diabrotica balteata [2] (application rate 12.5 ppm) was 65%.

Consider `CC(C)C(=O)NCc1ccc(C2=NOC(c3cc(Cl)cc(Cl)c3)(C(F)(F)F)C2)cc1Cl` (stereo not shown) [Compound A2], for which, in the data set on Diabrotica balteata [2], the pest or weed control at 200 ppm is no less than 80% and the pest or weed control at 50 µg/mL is greater than 80%.

With `C[C@H](NC(=O)C1CC1)c1ccc(N2CCC(c3cc(Cl)cc(Cl)c3)(C(F)(F)F)C2)cc1` (stereo partly drawn) [Compound B1, N-[(1S)-1-[4-[3-(3,5-dichlorophenyl)-3-(trifluoromethyl)pyrrolidin-1-yl]phenyl]ethyl]cyclopropanecarboxamide], in the data set on Diabrotica balteata [2] (setting [4]), the pest or weed control at 50 µg/mL was greater than 80%. The pest or weed control at 200 ppm in the data set with Diabrotica balteata [2] (setting [3]) is no less than 80%.

Regarding `Cc1cc(C2=NOC(c3cc(Cl)cc(Cl)c3)(C(F)(F)F)C2)ccc1-n1cccn1` (stereo not shown) [Compound D5], the “control of Diabrotica balteata” value in the data set with Diabrotica balteata [2] (setting [3]) is on record as “lower control”.

With `N#Cc1cc(C2=NCC(c3cc(Cl)c(Cl)c(Cl)c3)(C(F)(F)F)C2)ccc1-n1cncn1` (stereo not shown) [Compound C2, 2-(1,2,4-triazol-1-yl)-5-[3-(3,4,5-trichlorophenyl)-3-(trifluoromethyl)-2,4-dihydropyrrol-5-yl]benzonitrile], the pest or weed control at 50 µg/mL in the data set with Diabrotica balteata [2] (setting [4]) is greater than 80%. Moreover, the pest or weed control at 200 ppm in the data set with Diabrotica balteata [2] (setting [3]) was no less than 80%. For the same molecule, the “% larval mortality” value in the data set on Diabrotica balteata [1] (application rate 0.3 mg/seed) was 44%.

Regarding `O=C(CC(F)(F)F)NC1CCc2cc(C3=NOC(c4cc(Cl)cc(Cl)c4)(C(F)(F)F)C3)ccc21` (stereo not shown) [Compound E7], in the data set on Diabrotica balteata [1] (application rate 0.3 mg/seed), the “% larval mortality” value was 60%.

For `N#Cc1cnn(-c2ccc(C3=NOC(c4cc(Cl)c(F)c(Cl)c4)(C(F)(F)F)C3)cc2C#N)c1` (stereo not shown) [Compound D1], the “% larval mortality” value with Diabrotica balteata [1] (application rate 1 mg/seed) is on record as 100%.

With `C[C@H](NC(=O)C1CC1)c1ccc(N2CCC(c3cc(C(F)(F)F)cc(C(F)(F)F)c3)(C(F)(F)F)C2)cc1` (stereo partly drawn) [Compound B4, N-[(1S)-1-[4-[3-[3,5-bis(trifluoromethyl)phenyl]-3-(trifluoromethyl)pyrrolidin-1-yl]phenyl]ethyl]cyclopropanecarboxamide], the pest or weed control at 50 µg/mL in the data set with Diabrotica balteata [2] (setting [4]) is greater than 80%. For the same molecule, the pest or weed control at 200 ppm in the data set on Diabrotica balteata [2] (setting [3]) was no less than 80%. In addition, the “% larval mortality” value in the data set on Diabrotica balteata [1] (application rate 0.3 mg/seed) came to 78%.

Turning to `N#Cc1cc(C2=NOC(c3cc(Cl)c(F)c(Cl)c3)(C(F)(F)F)C2)ccc1-n1ccc(C(F)(F)F)n1` (stereo not shown) [Compound D11], the “control of Diabrotica balteata” value in the data set on Diabrotica balteata [2] (setting [3]) is on record as “No activity”.

Turning to `CCC(=O)NC1CCc2cc(C3=NCC(c4cc(Cl)cc(Cl)c4)(C(F)(F)F)C3)ccc21` (stereo not shown) [Compound E3, N-[5-[3-(3,5-dichlorophenyl)-3-(trifluoromethyl)-2,4-dihydropyrrol-5-yl]indan-1-yl]propanamide], the pest or weed control at 50 µg/mL in the data set with Diabrotica balteata [2] (setting [4]) is greater than 80%. Besides, the pest or weed control at 200 ppm in the data set on Diabrotica balteata [2] (setting [3]) is no less than 80%.

In the case of `CC(=O)NCc1ccc(N2CCC(c3cc(Cl)cc(Cl)c3)(C(F)(F)F)C2)cc1C` (stereo not shown) [Compound A4, N-{4-[3-(3,5-dichlorophenyl)-3-(trifluoromethyl)pyrrolidin1-yl]-2-methyl-benzyl)acetamide], the pest or weed control at 50 µg/mL with Diabrotica balteata [2] (setting [4]) was greater than 80%. Further, the pest or weed control at 200 ppm in the data set on Diabrotica balteata [2] (setting [3]) is no less than 80%.
